Entries after “also recorded” stand apart in the source; their conditions may differ. Where two headings read alike, the source gives them in different places.
Key:
[1] = tested on: C. elegans; assay: Lifespan assay on the Automated Lifespan Machine; type: in vivo, Caenorhabditis elegans; settings: 50 μM; for Max life span: 95th percentile of lifespans in each group; for Mean life span: calculated from the area under the survival curve; for Median life span: day 1 set at day 1 of adulthood, time at which 50% of the worms have died
From the text: To prevent chemical modification or metabolism of the test article by the food bacteria, worms were fed on a lawn of UV-killed bacteria (UV-i bacteria). An overnight culture of E. coli strain WP-2 was pelleted, washed, filtered, and irradiated. A suspension of UV-i bacteria was spotted on NGM agar containing Streptomycin to inhibit the growth of contaminating bacteria. The quantity and distribution of food bacteria were calibrated to ensure adequate access to food for the duration of assay while maintaining visibility of the worms.
Test compounds were soluble in 100% DMSO. The compounds were dissolved in a working solution and then combined directly with the food bacteria before seeding on agar plates. The food spots are dried slowly, allowing the compound to diffuse into the food bacteria and the agar for at least 24 hours before worms were introduced.
The ALM used by InVivoBiosystems is based on the Caenorhabditis elegans lifespan machine published by Stroustrup et. Al [Stroustrup, N. et al. The Caenorhabditis elegans Lifespan Machine. Nat Methods 10, 665-670 (2013)], with proprietary modifications to improve temperature stability and image acquisition. The scanner unit consisted of a modified EPSON V850 and images were processed and analyzed using the ALM software. The machine time-of-death calls are trained and validated using the “storyboarding” feature of the ALM software.
The lifespan assay was designed and performed according to published and validated methods [Amrit, F. R. G., Ratnappan, R., Keith, S. A. & Ghazi, A. The C. elegans lifespan assay toolkit. Methods 68, 465-475 (2014).] using a modified version of the Automated Lifespan Machine 7.
The lifespan assay was initiated by expanding all replicate groups to more than 1000 worms, then synchronizing by bleaching and allowing larval worms to hatch and arrest. To suppress progeny, worms were transferred to media containing 5-Fluorodeoxyuridine (FUdR) within 54-60 hours post-plating. Worms were inspected 24 and 48 hours after this transfer to confirm infertility. Finally, the worms were inspected for general health and morphology before transferring to scanner plates. The scanner plates were transferred to scanners for automated imaging on day 3 of adulthood.
Plates were immobilized inverted on the bed of an Automated Lifespan Machine which scanned two images per hour of the plates continuously for the next 40 days.
Time of death calls exported from the ALM software was analyzed and plotted using the Lifelines software package developed by Cam Davidson-Pilon et. al [Davidson-Pilon, C et. al. Lifelines survival analysis package. CamDavidsonPilon/lifelines: vo. 25-9.]. Additional analysis was performed using the OASIS2 analysis software6.
Worm movement was tracked from the images acquired by the ALM during the lifespan assay. Worm size and movement features were extracted and analyzed using custom software.

[2] = tested on: C. elegans; assay: Global gene expression by mRNA sequencing (RNA-Seq), GO enrichment and pathway mapping; type: in vivo, Caenorhabditis elegans
Protocol: To identify potential mechanisms of action through which SND305 and SND306 could affect aging, global gene expression was analyzed by mRNA sequencing (RNA-Seq). Worms were treated on the same media and conditions as the lifespan assay, then young worms were harvested at adult day 3 and aged worms harvested at adult day 10. Three replicates of treated samples were analyzed.
More than 300 day 1 adult worms per replicate were harvested, cleaned by filtration, and frozen at −80° in Trizol. To extract RNA, samples were thawed, vigorously vortexed, and processed using the Direct-zol RNA Miniprep Kit (Zymo Research). All samples exceeded the threshold for RNA quantity and quality.
The total RNA was then enriched for poly-mRNA using oligo(dT) paramagnetic beads. DNA libraries were then constructed from this input mRNA using the NEBNext Ultra™ II RNA Library Prep Kit. This created a ready-to-sequence dsDNA library that retained the strand-specific information in the original mRNA. These libraries were then further tested by the Qubit for concentration and the Agilent 2100 for library size distribution and quality. In order to properly pool the libraries and load them onto sequencing lanes to ensure the correct number of reads per sample, an even more precise quantification of the library was done via qPCR, and the samples were loaded onto the NovaSeq 6000 platform for a paired-end sequencing run of 150 bp for each end (PE150). The loading concentrations were designed to obtain at least 6.0 Gb (which is the number of billion bases of raw data, determined by the number of reads multiplied by the length of each read).
The raw data set was analyzed for • 1. The distribution of base quality along the length of the sequencing read • 2. The distribution of error rate along the length of the sequencing read • 3. The distribution of A/T/G/C bases along the length of the sequencing read • 4. The distribution of raw data filtering results based on the following three criteria: • a. Removing reads containing adapter sequence • b. Removing reads with N>10% (where N means “base cannot be determined”) • c. Removing reads with a low quality (Qscore<=5) for 50% or more of its total bases
Multidimensional scaling makes it possible to see strong patterns in large, complex data sets by reducing the data to two or three dimensions. When the data is plotted along these few dimensions, the samples form clustered based on their overall similarity to one another. The distance between samples is calculated based on the Biological Coefficient of Variation (BCV). Greater differences were observed between all conditions at Day 10 than at Day 3. To identify genes that are differentially expressed upon treatment with SND305 and SND306, the gene counts for each of the treated samples were compared against the control.
GO enrichment analysis is a common approach that identifies functional groups form lists of differentially expressed genes. Genes are annotated based on functional categories (gene ontologies) that are further categorized by biological process (BP), molecular function (MF), or cellular compartment (CC). A comparison is made between the likelihood of seeing genes in that category (ontology) being enriched or depleted in the list of DEGs when compared to a random selection of genes.
In order to identify which cellular pathways were most likely modulated by treatment with SND305 and SND306 and gain insight into how these pathways might contribute to mechanism of action (MoA), the genes differentially expressed after SND305 and SND306 treatment were mapped to core established longevity pathways from the literature. The mapping was then expanded to intersecting and supporting pathways. This placed the transcriptomic data within the context of well-characterized biological pathways, particularly several related to longevity.

[3] = tested on: C. elegans strain SD1347; assay: Age-related sarcopenia model: muscle mitochondrial fragmentation scoring; type: in vivo, Caenorhabditis elegans; settings: day 11; 50 μM; ANOVA and multiple comparisons (FIG. 8)
Protocol: C. elegans strain SD1347 confirmed to have nuclear and mitochondrial GFP labeling in muscle was obtained from the Caenorhabditis Genetic Center.
Synchronized worm populations were administered a single concentration of 50 μM SND compounds by exposure on NGM plates starting the day before adulthood. All plates contained 50 μM 5-Fluorodeoxyuridine (FUdR) to prevent progeny production. Animals were immobilized using NemaGel (InVivo Biosystems) and imaged within 1 hour. Worms were alive throughout imaging. For each worm imaged, one head and one tail image was collected from regions excluding the pharynx, vulva, and tip of the tail. For day 1, a single session imaged a minimum of 5 worms per condition.
For aged worms, two total biological replicates were collected, each with 5-6 worms imaged per condition. Images were obtained using a Nikon Eclipse Ti2 spinning disk confocal microscope. After processing, each image was scored blindly in replicate groups by six viewers.
Stock solutions of SND compounds were prepared by dissolving to 50 mM in DMSO. Working solutions were prepared such that the final concentration of compound in the total volume of the solid media would be 50 μM, and the DMSO concentration would not exceed 0.1% (e.g. 10 μl in a 10 mL dish). […]

[4] = tested on: C. elegans; settings: cited from earlier work
[5] = aged (Day 10) worms, weighted by the p-value

Compound	Max life span [1]	Mean life span [1]	Median life span [1]	Effect on lifespan [1]	Noteable GO categories enriched or depleted, Down ([2]; Day 3)	Noteable GO categories enriched or depleted, Up ([2]; Day 3)	Noteable GO categories enriched or depleted, Down ([2]; Day 10)	Noteable GO categories enriched or depleted, Up ([2]; Day 10)	Expression of genes specifically involved in axon regeneration ([2]; Day 10 (FIGS. 4 and 5))	Differentially expressed genes above threshold (volcano plot) ([2]; Day 10, P-value<0.05 and fold change >2.0)	CTSB expression, fold down- [2, 5]	CTSD expression, fold down- [2, 5]	LAMP expression, fold up- [2, 5]	Expression of cathepsin orthologs cpr-1, cpr-4, cpr-9 ([2]; day 3 (FIGS. 2 and 3))	Insulin Signaling (IIS) Pathway components daf-18, akt-1, and daf-16 ([2]; day 3 (FIGS. 2 and 3))	Sum of the mitochondrial fragmentation scores per image vs control [3]	Accumulation of dysfunctional mitochondria with age [4]	Effect on lifespan [4]
CO[C@H]1C[C@@H]2CC[C@@H](C)[C@@](O)(O2)C(=O)C(=O)N2CCCC[C@H]2C(=O)O[C@H]([C@H](C)C[C@@H]2CC[C@@H](O)[C@H](OC)C2)CC(=O)[C@H](C)/C=C(\C)[C@@H](O)[C@@H](OC)C(=O)[C@H](C)C[C@H](C)/C=C/C=C/C=C/1C [Rapamycin, reference compound]	33.0 days	26.2 days	26.5 days	–	–	–	–	–	–	–	–	–	–	–	–	–	–	–
CC(C)NC(=O)Oc1ccc2c(c1)COc1cc(OC(=O)NC(C)C)ccc1-2 [SND306]	34.6 days	25.8 days	26.6 days	increased the life span with statistical significance	hydrolase activity	structural constituent of cuticle (e.g. collagen), immune response, lipid	extracellular region, immune response, response to other organism	enrichment in genes involved with axon development and regeneration; also recorded: nervous system development, neurogenesis, regulation of gene expression	upregulation	a large number of DEGs above threshold	> 5 fold	> 5 fold	> 5 fold	upregulated	slight modulation	significantly less fragmentation than the control	–	–
O=c1oc2cc(O)ccc2c2ccc(O)cc12 [Urolithin A, urolithin A]	–	–	–	–	–	–	–	–	–	–	–	–	–	–	–	did not reach statistical significance	prevented the accumulation of dysfunctional mitochondria with age	extended lifespan
